Entries after “also recorded” stand apart in the source; their conditions may differ.
What was measured:
[1] = system: HIF‐1α target genes (VEGF and PDK1) mRNA expression; assay: quantitative RT‐PCR of HIF‐1α target genes; format: cell-based, human; conditions: listed as HI‐101
Protocol: (§1) Total RNA was isolated using Trizol reagent (Invitrogen). Complementary DNA was synthesized using a Reverse Transcriptase reagent (Promega). Fluorescence real‐time PCR was performed with the double‐stranded DNA dye SYBR Master Mix (Roche Diagnostics Corporation, Indianapolis, IN, USA) and the Applied Biosystems Step One Plus detection system (ABI 7900). The upstream and downstream gene‐specific primers were as follows. • HIF‐1α sense: 5′‐[…]‐3′, • HIF‐1α antisense: 5′‐[…]‐3′; • HIF‐1β sense: 5′‐[…]‐3′, • HIF‐1β antisense:5′‐[…]‐3′; • VEGF sense: 5′‐[…]‐3′, • VEGF antisense: 5′‐[…]‐3′; • PDK1 sense:5′‐[…]‐3′, • PDK1 antisense:5′‐GGAGGTCTCAACACGAGGT‐3′; • β‐actin sense: 5′‐[…]‐3′, • β‐actin antisense: 5′‐[…]‐3′; • ATP5D sense:5′‐ […]‐3′, • ATP5D antisense: 5′‐[…]‐3′; • ATP5E sense: 5′‐ […]‐3′, • ATP5E antisense:5′‐[…]‐3′; • ATP5F1 sense: 5′‐ […]‐3′, • ATP5F1 antisense:5′‐[…]‐3′.

[2] = target: F1‐ATP synthase complex (Sus scrofa, UniProt K7GLT8+P80021); assay: fluorescence polarization binding assay; parameters: species or system pig; conditions: F1‐ATPase 30 nM, HI‐103 4 nM, competitor 1 μM
From the text: ATP5A and ATP5B are important components of FOF1–ATP synthase, also known as ATP synthase, which is a protein complex that catalyzes ATP synthesis by utilizing energy from the translocation of protons across biological membranes.^[ [40] ^] FOF1‐ATP synthase consists of two domains: the membrane‐spanning domain, FO, which acts as a proton channel, and the soluble catalytic domain, F1, which synthesizes ATP and is composed of nine subunits(α 3 β 3 γδɛ).^[ [41], [42], [43], [44] ^] […] To verify whether HI‐101 targeted ATP5A and ATP5B, we knocked down the subunits of F1 domains separately by shRNA.
F1‐ATPase at indicated concentrations was incubated with HI‐103 (4 nM), bodipy‐1 was as a negative molecule, conduct the experiment after incubating in 96‐well microplates of black polystyrene for 10 min. The FP results were analyzed with GraphPad Prism 9.0.

[3] = target: T1, interaction between ATP5B and HIF‐1α mRNA (Homo sapiens, UniProt P06576); assay: RNA‐binding protein immunoprecipitation; format: cell-based; conditions: immunoprecipitation with anti‐ATP5B antibody
T1 construct: endogenous in cells
From the text: It has been reported recently that KUSC‐5037 inhibited HIF‐1α transcription by suppressing FoF1‐ATP synthase activity.^[ [35] ^] Thus, we wondered whether HI‐101 inhibited HIF‐1α translation in a similar way. Several ATP synthase inhibitors with various mechanisms of action have been reported.^[ [54] ^] Among them, Oligomycin inhibits the ATP synthase activity by binding the FO domain; Bedaquiline, an FDA‐approved drug, inhibits mitochondrial ATP production by targeting the gamma subunit of the ATP synthase;^[ [55] ^] Aurovertin B decreases ATP synthase activity by targeting the subunits of F1 domain. We first measured HIF‐1α transcriptional activity and protein level with the presence of reported ATP synthase inhibitors. […] A recent study reported that ATP5B shut down mPTP by binding circRNA SCAR in an enzymatic‐independent way,^[ [56] ^] which reminded us whether ATP5B played a similar role in blocking HIF‐1α translation. RNA‐binding protein immunoprecipitation was then performed using the Magna RIP RNA‐Binding Protein Immunoprecipitation Kit (Millipore, Burlington, MA) to detect the interaction between ATP5B and HIF‐1α mRNA.

[4] = target: T2, ATP synthase (Bos taurus, UniProt P00829); assay: MitoTox Complex V OXPHOS activity assay; format: biochemical; conditions: up to 50 µM
T2 construct: purchased Abcam ab109907
Protocol: The activity of complex V was determined using the MitoTox Complex V OXPHOS Activity Assay kit from Abcam (ab109907, Cambridge, MA, USA), according to the instructions. The activity of complex V was measured by monitoring the change in absorbance at 340 nm over a period of 2 h at 30 °C. Oligomycin (Selleck, […]) was used as a positive control for the assay.

[5] = system: HIF‐1α and HIF‐1β mRNA expression; assay: RT‐qPCR of HIF‐1α and HIF‐1β mRNA; format: cell-based, human
From the text: The whole protein synthesis process can be divided into four major steps: transcription, translation, posttranslational modifications and folding to a mature protein, and protein secretion.^[ [52] ^] We then investigated the potential effects of HI‐101 on HIF‐1α transcription and translation. […] On the basis of the existing experimental results, we draw a conclusion that HI‐101 inhibited the synthesis of nascent HIF‐1α protein without affecting its transcription.
as §1

[6] = system: HIF‐1α transcriptional activity; assay: dual‐luciferase assay (HRE‐Firefly Luciferase / renilla) of HIF‐1α transcriptional activity in HEK293T cells; format: cell-based, human
How it was run: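 Stable HEK293T line carrying HRE-firefly luciferase, renilla and HIF-1α P402A/P564A mutant, giving HIF-1α expression under normoxia. Compounds incubated 24 h at 37 °C; firefly/renilla luciferase ratio read as HIF-1α transcriptional activity.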

Compound: O=C(Nc1ccc(C23CC4CC(CC(C4)C2)C3)cc1)c1cccc(Cl)c1 [1‐3a, N‐(4‐((3r,5r,7r)‐Adamantan‐1‐yl)Phenyl)−3‐Chlorobenzamide]
- HIF‐1α target genes mRNA expression [1]: significantly inhibited HIF‐1α transcriptional activity and the expressions of HIF‐1α target genes; also recorded: significantly decreased the mRNA expression of HIF‐1α target gene VEGF
- competitive fluorescence polarization binding [2]: bound to F1‐ATP synthase complex in a similar way as HI‐103
- HIF‐1α mRNA binding to ATP5B [3]: improved HIF‐1α mRNA binding to ATP5B
- ATP synthase activity [4]: no effect on ATP synthase activity
- HIF‐1α and HIF‐1β mRNA expression [5]: did not affect HIF‐1α and HIF‐1β mRNA expression
- inhibition at 10 µM ([6]; Homo sapiens, HEK-293T, 10 µM, incubation 24 h, HEK293T, mean ± s.d. (n = 3), read-out: Inhibition rate [%] @ 10 µM): 81.4 ± 0.9%
- IC50 ([6]; Homo sapiens, HEK-293T, HEK293T dual‐luciferase, mean ± s.d. (n = 3)): 2000 ± 300 nM
- HIF‐1α transcriptional activity (luciferase), in words ([6]; hit confirmation): significantly inhibited HIF‐1α transcriptional activity

From article PMC10477886, “Adamantaniline Derivatives Target ATP5B to Inhibit Translation of Hypoxia Inducible Factor‐1α” (Advanced Science, 2023)
